Here are results for 2 molecules from ChEMBL document CHEMBL5465560, “Selectivity Literature for EUbOPEN Chemogenomic Library” (2024).

For test [1], the target named is Serine/threonine-protein kinase pim-2 (Homo sapiens, UniProt Q9P1W9). Briefly: Selectivity interaction (KinomeScan (DiscoverX)) EUB0001066a PIM2. The settings on record: at 1 µM.
The subject of test [2] is Mast/stem cell growth factor receptor Kit (Homo sapiens), P10721 [UNDEFINED MUTATION]. Briefly: Selectivity interaction (KinomeScan (DiscoverX)) EUB0001066a KIT. The settings on record: at 1 µM.
Test [3] has as its target T1, Serine/threonine-protein kinase NLK (Homo sapiens) (UniProt Q9UBE8).
T1 sequence (whole entry): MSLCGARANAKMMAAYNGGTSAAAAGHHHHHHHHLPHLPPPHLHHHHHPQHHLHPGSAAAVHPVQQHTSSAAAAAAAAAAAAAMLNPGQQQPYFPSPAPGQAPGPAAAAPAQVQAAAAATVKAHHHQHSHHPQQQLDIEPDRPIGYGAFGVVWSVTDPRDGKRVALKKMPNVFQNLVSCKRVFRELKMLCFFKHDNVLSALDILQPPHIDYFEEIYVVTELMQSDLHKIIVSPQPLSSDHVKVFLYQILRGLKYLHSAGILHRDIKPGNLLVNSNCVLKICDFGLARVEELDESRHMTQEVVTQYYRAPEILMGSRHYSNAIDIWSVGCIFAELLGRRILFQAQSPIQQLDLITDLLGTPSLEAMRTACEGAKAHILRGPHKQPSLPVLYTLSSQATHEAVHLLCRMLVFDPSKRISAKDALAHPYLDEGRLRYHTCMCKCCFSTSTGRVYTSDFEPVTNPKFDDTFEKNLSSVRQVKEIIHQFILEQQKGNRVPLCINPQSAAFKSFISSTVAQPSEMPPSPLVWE
Briefly: Selectivity interaction (KinomeScan (DiscoverX)) EUB0001066a NLK. The settings on record: at 1 µM.

The target in test [4] is T2, Alpha-1B adrenergic receptor (Homo sapiens) (UniProt P35368).
T2 sequence (whole entry): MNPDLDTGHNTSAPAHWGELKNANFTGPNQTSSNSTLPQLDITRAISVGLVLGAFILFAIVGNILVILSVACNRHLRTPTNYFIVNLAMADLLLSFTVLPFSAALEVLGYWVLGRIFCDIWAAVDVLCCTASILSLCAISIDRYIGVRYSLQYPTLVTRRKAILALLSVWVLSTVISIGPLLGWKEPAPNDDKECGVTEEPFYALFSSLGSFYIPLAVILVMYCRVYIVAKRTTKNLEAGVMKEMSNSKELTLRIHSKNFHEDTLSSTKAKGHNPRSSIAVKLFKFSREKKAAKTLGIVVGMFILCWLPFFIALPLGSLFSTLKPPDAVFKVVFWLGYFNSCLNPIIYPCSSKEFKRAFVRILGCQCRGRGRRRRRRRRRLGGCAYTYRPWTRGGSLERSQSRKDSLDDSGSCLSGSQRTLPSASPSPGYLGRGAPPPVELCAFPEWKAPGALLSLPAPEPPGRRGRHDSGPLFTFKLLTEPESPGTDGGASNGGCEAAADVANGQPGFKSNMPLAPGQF
Kind of test: Selectivity interaction (GPCR panel (PDSP screen)) EUB0001066a ADRA1B. Particulars: at 10 µM.

For test [5], the target named is T3, 5-hydroxytryptamine receptor 2C (Homo sapiens) (UniProt P28335).
T3 sequence (whole entry): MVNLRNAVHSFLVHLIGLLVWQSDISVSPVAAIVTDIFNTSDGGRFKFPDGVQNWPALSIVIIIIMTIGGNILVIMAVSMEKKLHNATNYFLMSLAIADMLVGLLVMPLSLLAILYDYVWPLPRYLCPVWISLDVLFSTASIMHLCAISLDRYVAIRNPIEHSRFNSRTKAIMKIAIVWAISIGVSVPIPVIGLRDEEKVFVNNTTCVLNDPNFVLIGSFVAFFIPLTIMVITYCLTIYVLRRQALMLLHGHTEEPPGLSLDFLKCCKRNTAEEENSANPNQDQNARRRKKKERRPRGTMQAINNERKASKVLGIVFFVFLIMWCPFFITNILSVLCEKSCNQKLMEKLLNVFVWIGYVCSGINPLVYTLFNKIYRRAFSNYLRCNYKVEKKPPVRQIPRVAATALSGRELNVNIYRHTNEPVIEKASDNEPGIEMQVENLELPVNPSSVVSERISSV
Kind of test: Selectivity interaction (GPCR panel (PDSP screen)) EUB0001066a HTR2C. The settings on record: at 10 µM.

The target in test [6] is Serine/threonine-protein kinase VRK2 (Homo sapiens) (UniProt Q86Y07). Briefly: Selectivity interaction (KinomeScan (DiscoverX)) EUB0001066a VRK2. The settings on record: at 1 µM.
Test [7] concerns the target 5-hydroxytryptamine receptor 1E (Homo sapiens) (UniProt P28566). Kind of test: Selectivity interaction (GPCR panel (PDSP screen)) EUB0001066a HTR1E. Particulars: at 10 µM.
Test [8] concerns the target Phosphatidylinositol 4-phosphate 5-kinase type-1 gamma (Homo sapiens) (UniProt O60331). Kind of test: Selectivity interaction (KinomeScan (DiscoverX)) EUB0000878a PIP5K1C. Particulars: at 1 µM.
Test [9] concerns the target T4, Dual specificity mitogen-activated protein kinase kinase 5 (Homo sapiens) (UniProt Q13163).
T4 sequence (whole entry): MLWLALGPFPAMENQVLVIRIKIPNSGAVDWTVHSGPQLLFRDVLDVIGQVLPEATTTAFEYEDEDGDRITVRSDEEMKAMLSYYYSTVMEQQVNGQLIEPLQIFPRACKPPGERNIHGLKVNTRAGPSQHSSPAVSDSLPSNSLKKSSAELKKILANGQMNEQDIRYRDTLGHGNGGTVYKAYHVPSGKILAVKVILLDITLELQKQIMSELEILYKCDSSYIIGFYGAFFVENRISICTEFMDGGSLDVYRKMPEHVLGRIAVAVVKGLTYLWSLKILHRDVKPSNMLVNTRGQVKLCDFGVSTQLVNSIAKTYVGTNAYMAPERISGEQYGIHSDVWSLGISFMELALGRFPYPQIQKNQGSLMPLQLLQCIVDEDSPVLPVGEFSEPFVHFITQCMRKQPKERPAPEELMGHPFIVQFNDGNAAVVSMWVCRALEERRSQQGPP
Briefly: Selectivity interaction (KinomeScan (DiscoverX)) EUB0000878a MAP2K5. Particulars: at 1 µM.

Test [10] addresses T5, Muscarinic acetylcholine receptor M1 (Homo sapiens) (UniProt P11229).
T5 sequence (whole entry): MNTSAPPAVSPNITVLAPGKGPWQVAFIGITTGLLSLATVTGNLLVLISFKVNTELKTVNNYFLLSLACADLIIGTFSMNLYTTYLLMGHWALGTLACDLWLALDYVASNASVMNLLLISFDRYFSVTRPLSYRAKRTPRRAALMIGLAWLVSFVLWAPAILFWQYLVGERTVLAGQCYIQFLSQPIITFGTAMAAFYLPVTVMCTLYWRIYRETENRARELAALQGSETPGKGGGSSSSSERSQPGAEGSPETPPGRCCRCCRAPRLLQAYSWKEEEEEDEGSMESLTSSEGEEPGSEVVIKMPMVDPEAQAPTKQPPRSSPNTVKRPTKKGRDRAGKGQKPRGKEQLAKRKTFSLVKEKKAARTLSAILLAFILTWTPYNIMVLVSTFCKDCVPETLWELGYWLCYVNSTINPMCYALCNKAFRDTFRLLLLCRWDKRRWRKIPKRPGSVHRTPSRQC
Briefly: Selectivity interaction (Eurofins Cerep-Panlabs Safety Screen 44 (GPCRS, Transporters, Ion Channels, Nuclear Receptors, other enzymes)) EUB0000878a CHRM1. Particulars: at 10 µM.

Test [11] deals with T6, Muscarinic acetylcholine receptor M2 (Homo sapiens) (UniProt P08172).
T6 sequence (whole entry): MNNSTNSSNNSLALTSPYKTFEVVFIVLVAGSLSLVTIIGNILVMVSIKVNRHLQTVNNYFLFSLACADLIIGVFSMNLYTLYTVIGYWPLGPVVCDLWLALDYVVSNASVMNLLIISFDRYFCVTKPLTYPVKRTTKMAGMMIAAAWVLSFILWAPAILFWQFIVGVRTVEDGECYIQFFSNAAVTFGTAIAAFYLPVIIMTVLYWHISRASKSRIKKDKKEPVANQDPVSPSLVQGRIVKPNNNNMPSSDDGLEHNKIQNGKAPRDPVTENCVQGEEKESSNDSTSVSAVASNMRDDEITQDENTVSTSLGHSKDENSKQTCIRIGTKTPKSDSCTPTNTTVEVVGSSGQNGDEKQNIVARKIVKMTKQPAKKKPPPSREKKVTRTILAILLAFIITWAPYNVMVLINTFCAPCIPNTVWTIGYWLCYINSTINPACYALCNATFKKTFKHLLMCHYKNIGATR
Kind of test: Selectivity interaction (Eurofins Cerep-Panlabs Safety Screen 44 (GPCRS, Transporters, Ion Channels, Nuclear Receptors, other enzymes)) EUB0000878a CHRM2. The settings on record: at 10 µM.

The target in test [12] is Mitogen-activated protein kinase kinase kinase 11 (Homo sapiens) (UniProt Q16584). Briefly: Selectivity interaction (KinomeScan (DiscoverX)) EUB0000878a MAP3K11. Particulars: at 1 µM.
Test [13] addresses T7, Receptor-interacting serine/threonine-protein kinase 4 (Homo sapiens) (UniProt P57078).
T7 sequence (whole entry): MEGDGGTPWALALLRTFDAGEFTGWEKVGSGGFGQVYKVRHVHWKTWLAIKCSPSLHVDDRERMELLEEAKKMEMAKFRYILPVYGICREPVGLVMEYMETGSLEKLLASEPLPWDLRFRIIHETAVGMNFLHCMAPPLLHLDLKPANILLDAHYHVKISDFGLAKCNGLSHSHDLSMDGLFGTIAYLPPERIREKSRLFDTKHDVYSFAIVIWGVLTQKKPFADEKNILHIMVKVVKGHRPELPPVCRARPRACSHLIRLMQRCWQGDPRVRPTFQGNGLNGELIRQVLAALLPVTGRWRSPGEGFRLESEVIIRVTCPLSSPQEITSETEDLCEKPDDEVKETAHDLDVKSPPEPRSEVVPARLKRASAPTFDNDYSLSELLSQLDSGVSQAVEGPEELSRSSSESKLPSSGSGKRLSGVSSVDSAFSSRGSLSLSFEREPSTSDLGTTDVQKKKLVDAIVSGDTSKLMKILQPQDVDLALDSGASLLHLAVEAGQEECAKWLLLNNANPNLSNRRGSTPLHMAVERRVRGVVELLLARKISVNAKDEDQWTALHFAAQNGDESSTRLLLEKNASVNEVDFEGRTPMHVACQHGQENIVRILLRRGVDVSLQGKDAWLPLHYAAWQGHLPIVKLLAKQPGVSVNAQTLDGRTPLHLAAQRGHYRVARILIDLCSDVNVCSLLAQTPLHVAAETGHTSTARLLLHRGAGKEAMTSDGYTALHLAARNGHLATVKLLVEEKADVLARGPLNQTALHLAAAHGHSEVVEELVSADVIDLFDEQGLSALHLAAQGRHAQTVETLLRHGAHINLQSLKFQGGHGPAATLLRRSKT
Kind of test: Selectivity interaction (KinomeScan (DiscoverX)) EUB0000878a RIPK4. The settings on record: at 1 µM.

Test [14] concerns the target Sodium-dependent dopamine transporter (Homo sapiens, UniProt Q01959). Kind of test: Selectivity interaction (Eurofins Cerep-Panlabs Safety Screen 44 (GPCRS, Transporters, Ion Channels, Nuclear Receptors, other enzymes)) EUB0000878a SLC6A3. Particulars: at 10 µM.
For test [15], the target named is Sodium-dependent noradrenaline transporter (Homo sapiens, UniProt P23975). Kind of test: Selectivity interaction (Eurofins Cerep-Panlabs Safety Screen 44 (GPCRS, Transporters, Ion Channels, Nuclear Receptors, other enzymes)) EUB0000878a SLC6A2. Particulars: at 10 µM.
Test [16] addresses Muscarinic acetylcholine receptor M3 (Homo sapiens, UniProt P20309). Briefly: Selectivity interaction (Eurofins Cerep-Panlabs Safety Screen 44 (GPCRS, Transporters, Ion Channels, Nuclear Receptors, other enzymes)) EUB0000878a CHRM3. Particulars: at 10 µM.

Chain of Mast/stem cell growth factor receptor Kit (Homo sapiens), P10721 [UNDEFINED MUTATION] (P10721 whole entry, looked up, change not shown): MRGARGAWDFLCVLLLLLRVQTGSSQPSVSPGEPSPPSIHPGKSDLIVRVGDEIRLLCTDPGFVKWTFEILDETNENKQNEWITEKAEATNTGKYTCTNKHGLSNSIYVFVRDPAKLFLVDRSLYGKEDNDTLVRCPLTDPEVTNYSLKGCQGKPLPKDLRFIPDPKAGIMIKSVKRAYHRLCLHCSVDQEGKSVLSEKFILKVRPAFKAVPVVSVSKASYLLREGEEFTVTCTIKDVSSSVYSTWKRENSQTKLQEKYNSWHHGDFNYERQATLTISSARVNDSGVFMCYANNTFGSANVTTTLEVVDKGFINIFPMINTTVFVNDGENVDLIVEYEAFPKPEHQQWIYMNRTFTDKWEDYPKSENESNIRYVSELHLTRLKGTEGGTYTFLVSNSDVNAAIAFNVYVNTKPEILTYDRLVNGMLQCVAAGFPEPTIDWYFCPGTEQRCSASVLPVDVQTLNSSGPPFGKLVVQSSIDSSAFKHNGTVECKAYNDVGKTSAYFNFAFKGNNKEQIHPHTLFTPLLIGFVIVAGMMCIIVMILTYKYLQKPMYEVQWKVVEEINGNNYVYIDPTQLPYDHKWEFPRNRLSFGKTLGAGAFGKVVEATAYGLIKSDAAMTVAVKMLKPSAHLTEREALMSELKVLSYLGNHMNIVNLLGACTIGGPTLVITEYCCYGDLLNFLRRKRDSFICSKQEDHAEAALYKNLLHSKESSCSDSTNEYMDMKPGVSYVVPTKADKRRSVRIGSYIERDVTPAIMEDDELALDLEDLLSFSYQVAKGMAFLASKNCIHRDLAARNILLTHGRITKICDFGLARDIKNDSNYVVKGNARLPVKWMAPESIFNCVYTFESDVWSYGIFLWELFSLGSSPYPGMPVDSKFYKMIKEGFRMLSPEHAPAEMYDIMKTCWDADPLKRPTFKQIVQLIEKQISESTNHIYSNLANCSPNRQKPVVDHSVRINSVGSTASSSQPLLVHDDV
Chain of Serine/threonine-protein kinase pim-2 (Q9P1W9 whole entry, looked up): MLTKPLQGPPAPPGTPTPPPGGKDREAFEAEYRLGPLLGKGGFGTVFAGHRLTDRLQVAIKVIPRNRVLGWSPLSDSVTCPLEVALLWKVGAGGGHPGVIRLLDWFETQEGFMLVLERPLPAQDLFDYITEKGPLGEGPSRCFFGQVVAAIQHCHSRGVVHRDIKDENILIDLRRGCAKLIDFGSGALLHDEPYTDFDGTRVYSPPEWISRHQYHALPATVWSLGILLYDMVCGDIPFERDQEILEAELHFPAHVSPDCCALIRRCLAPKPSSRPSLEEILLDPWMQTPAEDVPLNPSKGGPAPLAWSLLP
Chain of Phosphatidylinositol 4-phosphate 5-kinase type-1 gamma (Homo sapiens) (O60331 whole entry): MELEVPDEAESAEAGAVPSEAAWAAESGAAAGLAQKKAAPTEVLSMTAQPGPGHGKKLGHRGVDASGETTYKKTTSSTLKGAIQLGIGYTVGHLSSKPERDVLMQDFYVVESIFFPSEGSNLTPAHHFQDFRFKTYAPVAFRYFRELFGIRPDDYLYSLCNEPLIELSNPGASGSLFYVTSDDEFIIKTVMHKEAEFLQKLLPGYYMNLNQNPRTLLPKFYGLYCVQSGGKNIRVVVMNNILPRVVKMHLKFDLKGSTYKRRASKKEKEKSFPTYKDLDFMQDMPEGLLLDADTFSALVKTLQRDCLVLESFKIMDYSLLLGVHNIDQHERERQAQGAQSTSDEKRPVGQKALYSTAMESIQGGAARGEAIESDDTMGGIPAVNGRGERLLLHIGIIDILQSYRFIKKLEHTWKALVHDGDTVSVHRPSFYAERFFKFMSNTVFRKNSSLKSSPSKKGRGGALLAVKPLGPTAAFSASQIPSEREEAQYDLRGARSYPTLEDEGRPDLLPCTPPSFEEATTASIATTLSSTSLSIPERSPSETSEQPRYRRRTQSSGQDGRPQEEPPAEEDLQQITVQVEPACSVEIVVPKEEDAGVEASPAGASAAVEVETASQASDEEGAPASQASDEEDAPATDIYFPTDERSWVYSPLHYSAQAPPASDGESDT
Chain of Sodium-dependent dopamine transporter (Q01959 whole entry): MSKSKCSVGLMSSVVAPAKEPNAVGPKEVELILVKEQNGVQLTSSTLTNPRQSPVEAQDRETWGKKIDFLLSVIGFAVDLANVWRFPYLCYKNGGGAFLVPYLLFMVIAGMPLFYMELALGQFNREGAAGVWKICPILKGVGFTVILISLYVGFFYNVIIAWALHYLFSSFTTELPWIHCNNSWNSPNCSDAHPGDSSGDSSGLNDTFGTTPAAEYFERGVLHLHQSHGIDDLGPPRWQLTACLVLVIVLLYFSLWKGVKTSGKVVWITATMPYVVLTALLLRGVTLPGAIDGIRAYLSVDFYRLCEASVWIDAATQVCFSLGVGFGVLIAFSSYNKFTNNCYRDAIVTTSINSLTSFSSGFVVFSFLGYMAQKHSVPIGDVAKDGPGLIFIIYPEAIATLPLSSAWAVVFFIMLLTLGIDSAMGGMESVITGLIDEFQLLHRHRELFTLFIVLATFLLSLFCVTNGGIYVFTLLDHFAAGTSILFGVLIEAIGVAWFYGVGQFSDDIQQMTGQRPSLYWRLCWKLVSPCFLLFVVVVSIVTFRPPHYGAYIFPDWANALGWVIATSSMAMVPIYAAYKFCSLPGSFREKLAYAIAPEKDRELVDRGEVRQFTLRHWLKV
Chain of Serine/threonine-protein kinase VRK2 (Homo sapiens) (Q86Y07 whole entry): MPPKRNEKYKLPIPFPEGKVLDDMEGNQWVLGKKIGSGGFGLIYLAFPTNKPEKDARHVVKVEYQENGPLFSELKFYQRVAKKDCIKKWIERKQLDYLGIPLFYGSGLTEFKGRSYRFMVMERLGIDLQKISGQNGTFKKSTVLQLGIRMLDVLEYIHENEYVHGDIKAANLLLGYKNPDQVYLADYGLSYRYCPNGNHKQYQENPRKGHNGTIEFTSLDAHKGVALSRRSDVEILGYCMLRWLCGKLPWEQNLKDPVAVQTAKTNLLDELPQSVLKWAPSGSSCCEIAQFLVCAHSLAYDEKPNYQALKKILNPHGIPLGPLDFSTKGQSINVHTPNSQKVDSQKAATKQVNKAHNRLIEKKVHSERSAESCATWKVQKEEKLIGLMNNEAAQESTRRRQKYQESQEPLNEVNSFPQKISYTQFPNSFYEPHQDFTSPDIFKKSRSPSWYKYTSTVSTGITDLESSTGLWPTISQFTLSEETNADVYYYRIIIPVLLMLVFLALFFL
Chain of Muscarinic acetylcholine receptor M3 (P20309 whole entry, looked up): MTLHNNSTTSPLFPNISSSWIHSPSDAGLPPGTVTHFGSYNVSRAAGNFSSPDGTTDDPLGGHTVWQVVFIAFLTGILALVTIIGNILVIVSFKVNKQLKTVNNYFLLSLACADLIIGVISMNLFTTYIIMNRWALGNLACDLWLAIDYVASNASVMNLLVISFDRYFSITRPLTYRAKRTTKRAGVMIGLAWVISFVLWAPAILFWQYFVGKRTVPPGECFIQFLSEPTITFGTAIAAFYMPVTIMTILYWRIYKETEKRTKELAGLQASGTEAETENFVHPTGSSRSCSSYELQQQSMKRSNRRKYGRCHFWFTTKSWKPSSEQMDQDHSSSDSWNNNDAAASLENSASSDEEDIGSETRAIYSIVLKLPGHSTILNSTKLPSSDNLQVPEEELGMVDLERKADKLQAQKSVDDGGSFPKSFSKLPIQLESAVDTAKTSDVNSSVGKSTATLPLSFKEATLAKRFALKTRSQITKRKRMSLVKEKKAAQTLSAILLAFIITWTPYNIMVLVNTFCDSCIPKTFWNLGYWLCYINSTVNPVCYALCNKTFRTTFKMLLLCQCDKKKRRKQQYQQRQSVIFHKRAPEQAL
Chain of 5-hydroxytryptamine receptor 1E (Homo sapiens) (P28566 whole entry): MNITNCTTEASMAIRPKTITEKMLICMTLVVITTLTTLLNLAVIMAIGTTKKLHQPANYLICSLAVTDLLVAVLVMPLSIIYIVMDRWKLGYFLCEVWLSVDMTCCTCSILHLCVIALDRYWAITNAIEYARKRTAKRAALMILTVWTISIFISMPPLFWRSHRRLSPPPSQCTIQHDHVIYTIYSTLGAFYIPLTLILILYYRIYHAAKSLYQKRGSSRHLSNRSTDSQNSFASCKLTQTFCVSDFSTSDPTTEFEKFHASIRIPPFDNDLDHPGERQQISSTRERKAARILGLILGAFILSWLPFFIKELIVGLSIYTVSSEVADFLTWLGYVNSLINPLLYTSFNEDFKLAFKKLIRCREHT
Chain of Mitogen-activated protein kinase kinase kinase 11 (Homo sapiens) (Q16584 whole entry, looked up): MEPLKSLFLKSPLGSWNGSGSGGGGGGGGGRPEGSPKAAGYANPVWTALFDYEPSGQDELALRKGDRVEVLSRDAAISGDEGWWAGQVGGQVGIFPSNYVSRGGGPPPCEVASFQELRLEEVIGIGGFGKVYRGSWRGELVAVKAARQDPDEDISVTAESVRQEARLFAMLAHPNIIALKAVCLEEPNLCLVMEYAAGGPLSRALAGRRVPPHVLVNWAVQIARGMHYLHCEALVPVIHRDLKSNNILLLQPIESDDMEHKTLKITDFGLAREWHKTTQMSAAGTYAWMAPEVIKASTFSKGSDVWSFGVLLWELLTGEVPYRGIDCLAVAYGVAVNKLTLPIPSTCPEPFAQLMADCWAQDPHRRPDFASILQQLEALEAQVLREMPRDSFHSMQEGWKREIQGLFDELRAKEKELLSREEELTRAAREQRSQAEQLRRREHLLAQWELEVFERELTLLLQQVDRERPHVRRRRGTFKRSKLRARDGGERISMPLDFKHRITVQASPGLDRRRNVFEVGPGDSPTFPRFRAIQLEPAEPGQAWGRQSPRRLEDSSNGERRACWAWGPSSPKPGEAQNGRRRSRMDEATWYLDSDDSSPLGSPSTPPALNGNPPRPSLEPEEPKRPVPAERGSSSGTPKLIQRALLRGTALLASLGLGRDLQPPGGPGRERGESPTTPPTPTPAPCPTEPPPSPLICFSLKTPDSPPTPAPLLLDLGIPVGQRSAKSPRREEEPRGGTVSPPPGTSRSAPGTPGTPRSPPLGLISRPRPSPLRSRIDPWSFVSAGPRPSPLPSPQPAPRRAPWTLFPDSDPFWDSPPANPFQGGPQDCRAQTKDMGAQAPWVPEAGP

As to `Cc1nccc(COC(=O)N2C[C@@H]3[C@@H](CNC(=O)c4ccc5[nH]nnc5c4)[C@@H]3C2)n1`, the % of control in test [1] stood at 0%; in [2], 41%; in [3], 41%; in test [6], 29%. In addition, the % of inhibition was found to be 30.2% in test [4], 31.1% in [5] and 31.8% in test [7].

Turning to `CC(C)c1cc(Nc2nc(N3CCC[C@H](N)C3)ncc2C(N)=O)cc(C(C)C)n1`, the % of control stood at 0% in [8], 4.5% in test [9], 99% in [12] and 0.95% in test [13]. Besides, the % of inhibition or stimulation was 84% in test [10]; 70% in test [11]; 100% in test [14]; 87% in test [15]; 84% in [16].
